# Active and inactive are the calls of the source. The rule behind the calls is not given here.
# Legend:
# [1] = Solubility of compound in water at >20 uM; type: physicochemical; conditions: buffer
# [2] = target: T1, Peroxisome proliferator-activated receptor gamma (Homo sapiens) (UniProt P37231); assay: Transactivation of Gal4-fused human PPARgamma transfected in COS7 cells co-transfected with pGAL5-TK-pGL3 and pRennilla-CMV assessed as maximum intrinsic activation at 10 uM incubated for 39 hrs by dual luciferase reporter assay relative to pioglitazone; type: cell-based
# T1 sequence (whole entry): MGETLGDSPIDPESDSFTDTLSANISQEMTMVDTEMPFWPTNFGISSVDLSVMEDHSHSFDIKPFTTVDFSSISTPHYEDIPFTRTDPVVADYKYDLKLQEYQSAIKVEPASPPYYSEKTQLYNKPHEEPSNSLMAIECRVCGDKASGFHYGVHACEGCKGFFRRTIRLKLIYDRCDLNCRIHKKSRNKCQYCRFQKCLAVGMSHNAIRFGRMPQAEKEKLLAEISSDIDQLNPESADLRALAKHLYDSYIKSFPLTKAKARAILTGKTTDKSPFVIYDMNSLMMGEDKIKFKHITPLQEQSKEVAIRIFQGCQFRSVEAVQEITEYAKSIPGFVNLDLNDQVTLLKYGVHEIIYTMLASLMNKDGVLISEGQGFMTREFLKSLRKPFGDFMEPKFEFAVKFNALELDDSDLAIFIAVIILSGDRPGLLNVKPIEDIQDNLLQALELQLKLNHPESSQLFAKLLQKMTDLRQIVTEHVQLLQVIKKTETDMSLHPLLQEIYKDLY
# COS-7 = assay: Cytotoxicity against African green monkey COS7 cells assessed as effect on cell metabolic activity at 20 uM after 72 hrs by MTT assay; type: ADME, cell-based; conditions: chlorocebus aethiops, cos-7, 72 h
# K562-IMA[r] [3] = assay: Induction of sensitization to imatinib-induced cytotoxicity in imatinib-resistant human K562-IMA[r] cells assessed as induction of cell death at 10 uM after 72 hrs in presence of 1 uM imatinib by propidium iodide/Triton-X100 dye based FACS analysis (reference value: 15%); type: functional
# [4] = Solubility of compound in DMSO at 10 uM by microscopic analysis; type: physicochemical
# [5] = target: T1, Peroxisome proliferator-activated receptor gamma (Homo sapiens); assay: Transactivation of Gal4-fused human PPARgamma transfected in COS7 cells co-transfected with pGAL5-TK-pGL3 and pRennilla-CMV assessed as maximum intrinsic activation at 20 uM incubated for 39 hrs by dual luciferase reporter assay; type: cell-based
# K562-IMA[r] [6] = assay: Induction of sensitization to imatinib induced cytotoxicity in imatinib-resistant human K562-IMA[r] cells assessed as cell death up to 2.5 uM measured after 72 hrs in presence of 1 uM imatinib by propidium iodide/Triton-X100 dye based FACS analysis; type: functional
# K562-IMA[r] [7] = assay: Induction of sensitization to imatinib-induced cytotoxicity in imatinib-resistant human K562-IMA[r] cells assessed as gain in cell death rate at 5 uM measured after 72 hrs in presence of 1 uM imatinib by propidium iodide/Triton-X100 dye based FACS analysis relative to imatinib-treated control; type: functional
# K562-IMA[r] [8] = assay: Decrease in STAT5 expression in imatinib-resistant human K562-IMA[r] cells at 10 uM after 24 hrs in presence of 1 uM imatinib by Western blot analysis; type: functional, cell-based
# [9] = Cytotoxicity against human HS5 cells assessed as cell death at 10 uM after 72 hrs by propidium iodide/Triton-X100 dye based FACS analysis
# K562-IMA[r] [10] = assay: Cytotoxicity against imatinib-resistant human K562-IMA[r] cells assessed as induction of cell death at 10 uM after 72 hrs by propidium iodide/Triton-X100 dye based FACS analysis relative to control
# K562 = assay: Cytotoxicity against human K562 cells assessed as cell death at 10 uM after 72 hrs by propidium iodide/Triton-X100 dye based FACS analysis; conditions: k562, 72 h
# K562-IMA[r] [11] = assay: Induction of sensitization to imatinib-induced cytotoxicity in imatinib-resistant human K562-IMA[r] cells assessed as induction of cell death measured after 72 hrs in presence of 1 uM imatinib by propidium iodide/Triton-X100 dye based FACS analysis; type: functional
# K562-IMA[r] [12] = assay: Induction of sensitization to imatinib-induced cytotoxicity in imatinib-resistant human K562-IMA[r] cells assessed as induction of cell death at 10 uM after 72 hrs in presence of 1 uM imatinib by propidium iodide/Triton-X100 dye based FACS analysis; type: functional
# K562-IMA[r] [13] = assay: Induction of sensitization to imatinib-induced cytotoxicity in imatinib-resistant human K562-IMA[r] cells assessed as cell death at 0.1 to 10 uM measured after 72 hrs in presence of 1 uM imatinib by propidium iodide/Triton-X100 dye based FACS analysis; type: functional
# K562-IMA[r] [14] = assay: Cytotoxicity against imatinib-resistant human K562-IMA[r] cells assessed as cell death at 10 uM after 72 hrs by propidium iodide/Triton-X100 dye based FACS analysis
SMILES,solubility [1],Intrinsic activity [2],Activity (COS-7),Activity (K562-IMA[r] [3]),solubility [4],Intrinsic activity [5],Activity (K562-IMA[r] [6]),Activity (K562-IMA[r] [7]),Activity (K562-IMA[r] [8]),Activity [9],Activity (K562-IMA[r] [10]),Activity (K562),Activity (K562-IMA[r] [11]),Activity (K562-IMA[r] [12]),Activity (K562-IMA[r] [13]),Activity (K562-IMA[r] [14])
CCCc1nc2c(Br)cccc2n1Cc1ccc(-c2ccccc2C(N)=O)cc1,Insoluble,20.8%,Non-Toxic,62 - 78%,Soluble,inactive,inactive,21.4%,Active,Non-Toxic,< 20%,Non-Toxic,Dose-dependent effect,–,–,–
CCc1ccc(CCOc2ccc(CC3SC(=O)NC3=O)cc2)nc1 (centres undefined) [PIOGLITAZONE],–,–,–,–,–,–,–,–,–,–,–,–,–,Active,inactive,Non-Toxic
CCCc1nc2ccccc2n1Cc1ccc(-c2ccccc2C(N)=O)cc1,Insoluble,39.5%,Non-Toxic,62 - 78%,Soluble,inactive,inactive,16%,Active,Non-Toxic,< 20%,Non-Toxic,Dose-dependent effect,–,–,–

# Source: ChEMBL document CHEMBL4373734, “Overcoming imatinib resistance in chronic myelogenous leukemia cells using non-cytotoxic cell death modulators” (Eur J Med Chem, 2020)
